Reference: patent US20080280933A1, “BENZIMIDAZOLYL COMPOUNDS” (priority 2006, published 2008)

What follows are molecules tested against T1, mGluR2 receptor (metabotropic glutamate receptor 2) (Homo sapiens, UniProt Q14416) (assay: mGluR2 Potentiator Screen, FLIPR, EC10-EC20 glutamate challenge). Settings: mGluR2 potentiator screen, Table 7; read-out: EC50.
T1 construct: expressed in transfected cells
Format: cell-based
How it was run: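 HEK cells stably co-expressing mGluR2 and Gα15, kept glutamine-free overnight, were loaded with Fluo-4 plus probenecid and GPT/pyruvate. Compounds (top 10 μM) were added ≥30 min before an EC10–EC20 glutamate challenge. Peak FLIPR fluorescence ratios were curve-fitted, excluding points above maximal effect, with maxima from on-plate standards.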

T1 sequence (Q14416 19-872, species assumed): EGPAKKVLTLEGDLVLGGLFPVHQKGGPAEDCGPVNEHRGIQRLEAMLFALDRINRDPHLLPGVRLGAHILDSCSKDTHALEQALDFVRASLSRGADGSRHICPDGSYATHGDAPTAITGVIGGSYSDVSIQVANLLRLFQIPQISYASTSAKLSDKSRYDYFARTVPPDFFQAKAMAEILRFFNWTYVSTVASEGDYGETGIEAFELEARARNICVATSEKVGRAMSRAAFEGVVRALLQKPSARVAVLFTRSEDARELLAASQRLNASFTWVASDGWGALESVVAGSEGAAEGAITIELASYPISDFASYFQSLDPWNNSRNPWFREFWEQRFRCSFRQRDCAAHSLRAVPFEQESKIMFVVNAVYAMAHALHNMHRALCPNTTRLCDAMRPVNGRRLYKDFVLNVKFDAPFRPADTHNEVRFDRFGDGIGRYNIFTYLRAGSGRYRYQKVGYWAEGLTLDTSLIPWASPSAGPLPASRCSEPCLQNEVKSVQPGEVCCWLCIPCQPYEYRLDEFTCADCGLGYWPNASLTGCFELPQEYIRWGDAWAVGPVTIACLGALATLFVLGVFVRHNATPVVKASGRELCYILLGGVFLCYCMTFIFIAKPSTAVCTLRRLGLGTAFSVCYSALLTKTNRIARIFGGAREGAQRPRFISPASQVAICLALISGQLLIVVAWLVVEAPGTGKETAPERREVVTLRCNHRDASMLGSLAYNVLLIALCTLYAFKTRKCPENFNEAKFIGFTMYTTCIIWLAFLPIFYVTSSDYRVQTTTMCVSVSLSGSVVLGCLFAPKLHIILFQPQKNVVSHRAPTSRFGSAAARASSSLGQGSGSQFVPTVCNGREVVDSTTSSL

Molecule | EC50 [nM]
FCCn1c(CN2CCC(c3cc(Cl)ccc3OCC3CCC3)CC2)nc2ccccc21 [compound 195] | 1390
Cn1c(CN2CCC(c3cc(Cl)ccc3OCC3CCCO3)CC2)nc2ccccc21 (stereo not drawn) [compound 207] | 666
Cn1c(CN2CCC(c3cccc(C(F)(F)F)c3)C(O)C2)nc2ccccc21 (stereo not drawn) [compound 167] | 4380
Cn1c(CN2CCC(c3ccc(C(F)(F)F)cc3)CC2)nc2c(Br)cccc21 [compound 164] | 838
Clc1ccc(OCC2CCCO2)c(C2CCN(Cc3nc4ccccc4n3C3CC3)CC2)c1 (stereo not drawn) [compound 206] | 2600

Other lines, results leading:

EC50 [nM] | Molecule
1230 | COc1ccccc1C1CCN(Cc2nc3c(Br)cccc3n2C)CC1 [compound 169]
473 | Cn1c(CN2CCC(c3cc(Cl)ccc3OCC3CCC3)CC2)nc2ccccc21 [compound 194]
4130 | FCn1c(CN2CCC(c3cc(Cl)ccc3OCC3CCCO3)CC2)nc2ccccc21 (stereo not drawn) [compound 208]
248 | CCCOc1ccc(Cl)cc1C1CCN(Cc2nc3ccccc3n2CCF)CC1 [compound 222]

Same assay, conditions: read-out: EC50

Molecule | EC50 [nM]
CC(=O)N1CC2(CCN(Cc3nc4ccccc4n3C)CC2)c2cc(F)ccc21 [compound 19] | 4790
COc1ccccc1[C@H]1CCN(Cc2nc3ccccc3n2CCF)C[C@H]1C (relative stereo) [compound 339] | 604
4-Fluoro-2-((4-(2-Fluorophenyl)piperidin-1-yl)methyl)-1-methyl-1H-benzo[d]imidazole [Entry 325] | 97.9
Cc1cccc2c1nc(CN1CCC(c3ccccc3F)CC1)n2C [compound 267] | 249
FCCn1c(CN2CCC(c3cc(C(F)(F)F)ccc3F)CC2)nc2ccccc21 [compound 329] | 463
Cn1c(CN2CCC3(CC2)COc2ccccc23)nc2ccccc21 [compound 262] | 1170
Cn1c(CN2CCC3(CC2)CN(CC(C)(C)C)c2ccccc23)nc2ccccc21 [compound 111] | 10300
CCCN1CC2(CCN(Cc3nc4ccccc4n3C)CC2)c2cc(C)ccc21 [compound 144] | 2370
Cc1ccc2c(c1)C1(CCN(Cc3nc4ccccc4n3C)CC1)CN2 [compound 143] | > 8670
CCCN1CC2(CCN(Cc3nc4ccccc4n3C)CC2)c2cc(C)cc(C)c21 [compound 145] | 2690
CC(O)c1ccccc1C1CCN(Cc2nc3ccccc3n2C)CC1 (stereo not drawn) [compound 313] | 361
Cc1ccc2c(c1)C1(CCN(Cc3nc4ccccc4n3C)CC1)CN2C(=O)c1cccnc1 [compound 35] | 3610
Cc1ccc2c(c1)C1(CCN(Cc3nc4ccccc4n3C)CC1)CN2C(=O)c1c(C)noc1C [compound 31] | 2040
CN1CC2(CCN(Cc3nc4ccccc4n3C)CC2)c2cc(Cl)ccc21 [compound 131] | 1760
COc1cccc(F)c1C1CCN(Cc2nc3ccccc3n2C)CC1 [compound 438] | 81
Cn1c(CN2CCC3(CC2)CN(C(=O)C2COc4ccccc4O2)c2ccccc23)nc2ccccc21 (stereo not drawn) [compound 52] | 1390
Cn1c(CN2CCC(O)(c3cc(Br)cc(Br)c3)CC2)nc2ccccc21 [compound 68] | 1240
CC(C)CN1CC2(CCN(Cc3nc4ccccc4n3C)CC2)c2cc(Cl)ccc21 [compound 113] | 4370
Cn1c(CN2CCC3(CC2)CN(Cc2ccccc2)c2ccccc23)nc2ccccc21 [compound 109] | 5220
COc1cc(C2CCN(Cc3nc4ccccc4n3C)CC2)ccc1F [compound 425] | 434
Cn1c(CN2CCC(c3cccc(C(F)(F)F)c3)CC2)nc2cc(Cl)ccc21 [compound 381] | 1590
COc1cccc(C2CCN(Cc3nc4cc(Cl)ccc4n3C)CC2)c1 [compound 385] | 2760
Cn1c(CN2CCC(c3cc(Cl)ccc3F)CC2)nc2cc(C#N)ccc21 [compound 387] | 201
CCOC(=O)CCC(=O)N1CC2(CCN(Cc3nc4ccccc4n3C)CC2)c2cc(Cl)ccc21 [compound 41] | 1630

The remaining lines, values ahead:

EC50 [nM] | Molecule
357 | COc1ccc(Cl)cc1C1CCN(Cc2nc3ccccc3n2C2CC2)CC1 [compound 229]
43.3 | Cc1cc(F)ccc1C1CCN(Cc2nc3ccccc3n2C)CC1 [compound 310]
1600 | Cn1c(CN2CCC(c3ccc(C(F)(F)F)cc3)CC2)nc2cc(Cl)ccc21 [compound 345]
1040 | CCCCOc1ccccc1C1CCN(Cc2nc3ccccc3n2C)CC1 [compound 95]
3800 | COCn1c(CN2CCC(c3cc(C(F)(F)F)ccc3OC)CC2)nc2ccccc21 [compound 320]
1650 | COc1ccc(C(F)(F)F)cc1C1CCN(Cc2nc3ccccc3n2CCF)CC1 [compound 319]
1810 | 2-{[Cis-4-(3,4-Difluoro-phenyl)-3-methyl-piperidin-1-yl]methyl}-1-methyl-1H-benzoimidazole [Entry 462]
853 | COc1ccc(C(F)(F)F)cc1C1CCN(Cc2nc3cc(F)ccc3n2C)CC1 [compound 377]
1310 | COc1ccc(Cl)cc1C1CCN(Cc2nc3c(Br)cccc3n2C)CC1 [compound 234]
468 | Cn1c(CN2CCC(c3ccccc3F)CC2)nc2cc(F)c(F)cc21 [compound 259]
126 | Cn1c(CN2CCC(c3cc(F)cc(F)c3)CC2)nc2ccccc21 [compound 414]
89.2 | CCc1ccc(C2CCN(Cc3nc4ccccc4n3C)CC2)cc1 [compound 426]
112 | COc1ccc(-c2cccc3nc(CN4CCC(c5ccccc5F)CC4)n(C)c23)cn1 [compound 309]
905 | COCCn1c(CN2CCC(c3ccc(F)cc3)CC2)nc2ccccc21 [compound 367]
88.2 | Cn1c(CN2CCC(c3ccc(Cl)c(F)c3)CC2)nc2cc(F)ccc21 [compound 454]
48.3 | Cn1c(CN2CCC(c3ccc(F)cc3F)CC2)nc2cccc(F)c21 [compound 424]
1510 | COc1ccc(C(F)(F)F)cc1C1CCN(Cc2nc3cc(F)c(F)cc3n2C)CC1 [compound 321]
302 | C#CCOc1ccc(Cl)cc1C1CCN(Cc2nc3ccccc3n2CF)CC1 [compound 237]
